The values below come from patent US4458077A, “Heterocyclic anti-ulcer agents” (American Home Products Corporation, priority 1982, dated 1984).

The conditions of data set [1]: background, cited from earlier work.
For a further data set, the target named is H2 histamine receptors (Cavia porcellus, UniProt P47747). Kind of data set: guinea pig heart atrium test: inhibition of histamine-induced positive chronotropic response (H2 antagonist activity). The procedure:
(§1) The results for some of the compounds of the invention in these procedures is presented at the end of the following examples, which will serve to illustrate the present invention.
The guniea pig heart atrium test is carried out as follows:
A guinea pig right atrium is suspended at 1 g. tension (isometric) in a thermostatically controlled (32° C.) tissue bath (10 ml) containing oxygenated (95% O2; 5% CO2) Krebs-Haenseleit buffer (pH 7.4). The tissue is allowed to stabilize over 1 hour. Individual contractions are recorded with a force-displacement transducer through a strain gauge coupler. A control dose-response curve to histamine in the above described tissue bath is obtained after which the tissue is washed 3 times and allowed to re-equilibrate to basal rate. The test compound is added to the tissue bath at the desired final concentration. Thirty minutes after addition of the compound, a fresh histamine dose response curve is again obtained. Then the response to histamine in the presence of antagonist is compared to the histamine control response. This procedure is repeated, using fresh tissues, for each concentration of antagonist tested. The result is expressed as the apparent dissociation constant (pA2) of the H2 antagonist as determined by standard procedures. Cimetidine is used as the standard for this test.

For another data set, the system named is gastric acid secretion. Description: gastric secretion in the pylorus-ligated rat (modified Shay procedure). To be noted: 32 mg/kg, interduodenally (i.d.), pylorus-ligated male Charles River rats, 4 hours after ligation. It is filed as in vivo. The procedure: as §1
The procedure for testing gastric secretion in the rat, a modification of the procedure of Shay et al., Gastroenterology, 26, 906-13 (1954) is carried out as follows:
Male Charles River rats weighing 200-300 grams are deprived of food but not water for 24 hours prior to use. Water is, however, withheld during the experiment. The rats are weighed, anesthetized, and the pylorus ligated according to the method of Shay et al. Treatment or vehicle control is then administered interduodenally (i.d.). Rats are housed 2/cage and sacrificed with CO2 four hours after ligation. The stomachs are removed, rinsed, and contents emptied into a graduated centrifuge tube. The tubes are centrifuged for 20 minutes at 2,000 RPM and the volume of gastric juice recorded. Any samples obviously contamined by feces, food or hemolysis are eliminated. An aliquot of each is frozen for later analysis of Na^+, K^+ and Cl^- concentration. The pH is measured and 1 ml. of gastric juice is titrated with 0.1N NaOH to a pH of 7.0-7.4. Titrable acid output is calculated in microequivalents and the percent inhibition of acid output is calculated as follows: [formula]

Setting [2] is: apparent dissociation constant (pA2) vs histamine, guinea pig right atrium, 32° C, pH 7.4, 30 min after compound, three experiments, read-out: pA2 Value (converted).

Structures are written as SMILES. Where two headings read alike, the source gives them in different places.

Chain of H2 histamine receptors (P47747 whole entry): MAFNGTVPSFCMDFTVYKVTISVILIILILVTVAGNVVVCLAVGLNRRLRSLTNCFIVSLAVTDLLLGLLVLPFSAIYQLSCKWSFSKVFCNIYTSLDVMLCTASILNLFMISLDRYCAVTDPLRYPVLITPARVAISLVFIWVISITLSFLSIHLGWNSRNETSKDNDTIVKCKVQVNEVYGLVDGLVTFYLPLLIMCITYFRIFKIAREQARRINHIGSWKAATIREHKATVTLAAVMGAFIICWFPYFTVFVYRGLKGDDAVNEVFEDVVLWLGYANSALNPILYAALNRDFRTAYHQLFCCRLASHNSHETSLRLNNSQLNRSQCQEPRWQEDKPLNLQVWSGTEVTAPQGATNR

`CN/C(=N/CCSCc1nc[nH]c1C)NC#N` [cimetidine]: the “confusional states (limitation)” value in data set [1] (elderly patients) was “a tendency to cause confusional states in elderly patients”. Further, the “anti-androgenic activity (limitation)” value in data set [1] (patients) is “anti-androgenic activity”. Regarding `CNC(=S)NOCCOCc1ccc(CN(C)C)o1` [Example 4, N-[2-[[5-[(dimethylamino)methyl]-2-furanyl]methoxy]ethoxy]-N'-methyl-thiourea, 1/2 hydrate], the Kb on H2 histamine receptors (setting [2]) is 1.26 µM. As for `CNC(=C[N+](=O)[O-])NOCCOCc1ccc(CN(C)C)o1` [Example 2, N-[2-[[5-[(dimethylamino)methyl]-2-furanyl]methoxy]ethoxy]-N'-methyl-2-nitro-1,1-ethenediamine, ethanedioate], on H2 histamine receptors (setting [2]), the Kb was 9.12 µM.

`CNC(=C[N+](=O)[O-])NOCCCc1csc(NC(=N)N)n1` [Example 5, [4-[3-[[[1-(methylamino)-2-nitroethenyl]amino]oxy]propyl]-2-thiazolyl]guanidine]: the Kb on H2 histamine receptors (printed in pA2 column, footnote *: KB value, result of only one experiment, guinea pig right atrium vs histamine, read-out: KB value) is 0.108 µM. Further, the “% Inhibition (of acid output)” value with gastric acid secretion is on record as 72%.
